Experimental data reported in patent publication US11986458B1, “Natural and synthetic andrographolides compounds for the treatment of skeletal muscular dystrophies” (Innobiosciences LLC, priority 2018, dated 2024).

Experiments:
[1] = tested on: dystrophin; conditions: mdx mice; cited from earlier work
[2] = tested on: dystrophin; conditions: cited from earlier work
[3] = tested on: MES-13 cells; conditions: cited from earlier work; for intracellular oxidative states: high glucose cultured MES-13 cells
[4] = tested on: mdx mice; assay: Skeletal muscle histology (H&E) and collagen type I indirect immunofluorescence, tibialis anterior of mdx mice; assay type: in vivo, mouse; conditions: 3 months administration; for damaged areas in muscle, Hematoxylin and Eosin staining: tibialis anterior, compared to vehicle-treated mdx mice
Experimental: We used 12-week-old control or mdx male mice of the C57BL/10 ScSn strain. The animals were kept at room temperature with a 24-hour night-day cycle and were fed with pellets and water ad libitum. Experimental exercise involved running the mice on a treadmill three times per week for 30 minutes each session at 12 m/minute over three or four months. See Morales, MG. et al., Reducing CTGF/CCN2 Slows Down MDX Muscle Dystrophy And Improves Cell Therapy, 22 Hum Mol Genet 4938 (2013), DeLuca, A. et al., Enhanced Dystrophic Progression In MDX Mice By Exercise And Beneficial Effects Of Taurine And Insulin-Like Growth Factor-1, 304 J Pharmacol Exp Ther 453 (2003), DeLuca, A. et al., A Multidisciplinary Evaluation Of The Effectiveness Of Cyclosporine A In Dystrophic MDX Mice, 166 Am J Pathol 477 (2005), Cabello-Verrugio, C. et al., Angiotensin II Receptor Type 1 Blockade CTGF/CCN2-Mediated Damage And Fibrosis In Normal And Dytrophic Skeletal Muscles, 16 J Cell Mol Med 752 (2012). Four experimental groups were designed: animals in the first group were injected intraperitoneally (ip) with andrographolide (1.0 mg/kg/day). Animals in the second group were treated with prednisone (5 mg/kg). Third group, animals were treated with prednisone together with andrographolide. Fourth group animals were injected with saline. At the end of the experiment the muscles were dissected and removed under anesthesia (isofluorane gas) and then the animals were sacrificed. Tissues were used for electrophysiological measurement or rapidly frozen and stored at −80° C. until processing. All protocols were conducted in strict accordance with guidelines and with the formal approval of the Animal Ethics Committee of the Pontificia Universidad Católica de Chile.
Architecture and histology were detected by hematoxylin-eosin (H&E) stain in transverse sections of muscle. See Morales, MG. et al., CTGF/CCN-2 Over-Expression Can Directly Induce Features Of Skeletal Muscle Dystrophy, 225 J Pathol 490 (2011). Collagen Type I was determined as described in Morales, MG. et al., Reducing CTGF/CCN2 Slows Down MDX Muscle Dystrophy And Improves Cell Therapy, 22 Hum Mol Genet 4938 (2013).
Tissue samples evaluated using collagen type I immuno-staining. […] We posit that this prevents tissue damage in mdx mice.

[5] = tested on: CTGF; conditions: in vitro (skeletal cells); cited from earlier work
[6] = tested on: mdx mice; assay: Isometric force of isolated muscles from treated exercised mdx mice; assay type: in vivo, mouse; conditions: treadmill exercise, andrographolide 1.0 mg/kg/day ip, prednisone 5 mg/kg, single electro-stimulation and high frequency stimulation
Experimental: We used 12-week-old control or mdx male mice of the C57BL/10 ScSn strain. The animals were kept at room temperature with a 24-hour night-day cycle and were fed with pellets and water ad libitum. Experimental exercise involved running the mice on a treadmill three times per week for 30 minutes each session at 12 m/minute over three or four months. […]
The isometric force of isolated muscles was measured as described previously. Briefly, optimum muscle length (Lo) and stimulation voltage were determined from micromanipulation of muscle length to produce maximum isometric twitch force. Maximum isometric tetanic force (Po) was determined from the plateau of the frequency-force relationship after successive stimulations at 1 to 200 Hz for 450 ms, with 2-minute rests between stimuli. […]

[7] = tested on: mdx mice; assay: Life expectancy / survival of mdx mice under life-long treatment; assay type: in vivo, mouse
Experimental: Groups of mdx mice were treated with or without andrographolide (1.0 mg/kg/day) 3 times per weeks starting at one month old until they die naturally. The animals were maintained under free food and water access all the time. Days of death was recorded.
To evaluate whether andrographolide affects survival in dystrophic mice we perform a long term treatment with andrographolide through intra-peritoneal injections, three times per weeks starting at one month old until they die naturally, in order to determine the effects over life expectancy in mdx mice.

[8] = tested on: mdx mouse; conditions: cited from earlier work
[9] = tested on: cholestasis-induced apoptosis; conditions: in vivo; cited from earlier work
[10] = tested on: patients with Duchenne Muscular Dystrophy; assay: PedsQL for Duchenne Muscular Dystrophy Module questionnaire in pediatric DMD patients; assay type: in vivo, human; conditions: 70 mg orally twice per day
Experimental: Thirteen pediatric patients were derived from the Chilean Duchenne Association with confirmed clinical diagnostic. Of the thirteen patients, seven of them used chronic glucocorticoid treatment (Table A). Two of the patients had disease advanced enough so that the patients were no longer ambulatory.
All patients, both those treated with glucocorticoid and those not requiring glucocorticoid, received 70 mg andrographolide (as a standardized extract) orally two times per day. Treatment periods ranged from one month to more than twelve months. […] (Table B)
Thirteen (13) children with DMD of different ages (ranging from 4 to 14 years old) were treated with Andrographis paniculata capsules (either taking corticosteroids or not) for a variable period of time (ranging from one month to two years) (Table A).
Each parent or tutor received a questionnaire with different scores parameters to be completed. The parents were asked to fill out the Pediatric Quality of Life Inventory TM questionnaire (PedsQL for Duchenne Muscular Dystrophy Module) of their perception about; Quality of life, Sleep, Pain, Cold, Walk/Move, Play/Run, Jump, Coordination, Force and Mood of children during Andrographis paniculata treatment (Table B).

[11] = tested on: DMD; conditions: glucocorticoids such as prednisone; cited from earlier work
[12] = 12 DMD patients over a six-month period

gentamicin
dystrophin expression in muscle fibers above normal levels [1]: 20% | clinical benefits [2, 12]: no clinical benefits were observed | patients with dystrophin expression detected [2, 12]: 6 of the 12 | muscle strength and re-expression of dystrophin in muscles ([2]; one of the studies on DMD patients): beneficial effect on muscle strength and a re-expression of dystrophin in muscles

C=C1CCC2C(C)(CO)C(O)CCC2(C)C1C=CC1=CCOC1=O (stereo not drawn) [AP2, 14-deoxy-11,12-didehydro-andrographolide]
reduction of apoptosis marker caspase-3, fibrosis marker TGF-β1, and PAI-1 ([3]; MES-13 cells, comparison AP2 vs AP1): more potent activity than AP1 | phenotypes indicating diabetic nephropathy ([3]; MES-13 cells): reduced the phenotypes indicating diabetic nephropathy | antioxidant ability in a cellular environment [3]: do not have antioxidant ability | intracellular oxidative states [3]: reduced intracellular oxidative states

C=C1CC[C@@H]2[C@](C)(CO)[C@H](O)CC[C@@]2(C)[C@@H]1C/C=C1/C(=O)OC[C@H]1O [andrographolide, 3-[2-[Decahydro-6-hydroxy-5-(hydroxymethyl)-5,8a-dimethyl-2-methylene-1-napthalenyl]ethylidene]dihydro-4-hydroxy-2(3H)-furanone]
fibrosis, collagen type I immuno-staining [4]: diminish fibrosis | damaged areas in muscle, Hematoxylin and Eosin staining [4]: prevented the increase of damaged areas | expression of pro-fibrotic factor CTGF [5]: able to inhibit | isolated muscle strength (maximal switch force and tetanic contraction) [6]: improved muscle contraction at similar levels than the induced by prednisone | total life expectancy ([7]; mdx mice, 1.0 mg/kg/day ip three times per week from one month old until natural death, n=6): around 21.7±2.35 months | increase of life expectancy of dystrophic mice ([7]; versus vehicle-treated mdx mice): 15% | muscle associated fibrosis ([8]; animal model of DMD, the mdx mouse): significantly reduces muscle associated fibrosis | exercise resistance in dystrophic mice ([8]; mdx mouse): increase exercise resistance | skeletal muscle force in dystrophic muscles ([8]; mdx mouse): increase | protection against cholestasis-induced apoptosis [9]: potent protector | improvement in quality of life, quality of sleep, pain, colds, coordination, force and mood ([10]; 13 DMD patients): important improvement | overall effect on PedsQL parameters ([10]; all 13 DMD patients, one month to more than twelve months): slight to important improvement | phenotypes indicating diabetic nephropathy ([3]; MES-13 cells): reduced the phenotypes indicating diabetic nephropathy | antioxidant ability in a cellular environment [3]: do not have antioxidant ability | intracellular oxidative states [3]: reduced intracellular oxidative states

C[C@]12C=CC(=O)C=C1CC[C@@H]1[C@@H]2C(=O)C[C@@]2(C)[C@H]1CC[C@]2(O)C(=O)CO [prednisone, reference compound]
side effects [11]: severe side effects | fibrosis, collagen type I immuno-staining [4]: diminish fibrosis | damaged areas in muscle, Hematoxylin and Eosin staining [4]: prevented the increase of damaged areas | isolated muscle strength (maximal switch force and tetanic contraction) [6]: improved muscle contraction
